Holding throughout (assay): DTP human tumour cell line panel, 48 h
Test [1] has as its system KM12.
In test [2] the test system is MDA-MB-435.
For test [3], the system named is NCI-H522.
Test [4] relates to SK-MEL-28.
Test [5] deals with IGROV-1.
Test [6] has as its system OVCAR-3.
The subject of test [7] is HCT-116.
Test [8] deals with HL-60.
Test [9] relates to ACHN.
Test [10] deals with MOLT-4.
Test [11] relates to UACC-257.
Test [12] deals with LOX IMVI.
Test [13] deals with MDA-N.
The subject of test [14] is SNB-75.
The subject of test [15] is Malme-3M.
Test [16] concerns PC-3.
Test [17] relates to OVCAR-5.
Test [18] relates to NCI-H23.
For test [19], the system named is CAKI-1.
Test [20] concerns HOP-62.

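Interpolation was linear, between the two tested concentrations surrounding the appropriate level; five concentrations were tested over 48 hours in 96-well plates. GI50: concentration for 50% inhibition of growth.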 Calls of active or inactive are those of the source. No stated cut-off is given here; in the data, active = GI50 up to about 1.1 µM and inactive = higher.

As to `CC(=O)c1ccccc1NS(=O)(=O)c1ccc2nc(C)n(NS(=O)(=O)c3ccccc3C(C)=O)c(=O)c2c1`, the GI50 in test [1], in [2], in test [3], in test [4], in test [5] and in test [6] was > 100 µM (inactive) in each case. Besides, the GI50 in test [7], in [8], in [9], in [10], in test [11] and in test [12] was > 100 µM (inactive) throughout. The GI50 in test [13], in [14], in test [15], in test [16], in [17] and in test [18] was > 100 µM (inactive) throughout. The GI50 in [19] and in test [20] was > 100 µM (inactive) throughout.
Consider `CC(=O)c1c(SCCN2CCCCCC2)n(-c2ccccc2)c(=S)n(-c2ccccc2)c1=O`, for which the GI50 (commonly the concentration that inhibits growth by half) in test [1] was 18.6 µM (inactive); in test [2] it was 12.9 µM (inactive); in test [3], 1.43 µM (inactive); in [4], 11.2 µM (inactive); in [5] it was 8.3 µM (inactive); in test [6], 3.13 µM (inactive). Besides, the GI50 in test [7] was 6.81 µM (inactive); in test [8] it was 0.019 µM (active); in [9] it was 1.68 µM (inactive); in test [10], 2.16 µM (inactive); in [11], 4.07 µM (inactive); in test [12] it was 3.16 µM (inactive). Further, the GI50 was 7.29 µM (inactive) in [13]; 13.8 µM (inactive) in test [14]; 1.51 µM (inactive) in test [15]; 5.26 µM (inactive) in test [16]; 24.4 µM (inactive) in test [17]; 17.3 µM (inactive) in [18]. Moreover, the GI50 was 3.85 µM (inactive) in test [19] and 19.5 µM (inactive) in [20].
Consider `CN(C)CCCCN1c2ccccc2Sc2ccc(C(=O)c3ccccc3)cc21`, for which the GI50 in test [1] is 2.02 µM (inactive); in test [2] it was 1.9 µM (inactive); in test [3] it was 2.91 µM (inactive); in test [4] it was 1.95 µM (inactive); in [5], 2.9 µM (inactive); in test [6] it was 3.98 µM (inactive). The GI50 in test [7] was 2.18 µM (inactive); in [8], 1.85 µM (inactive); in test [9], 2.94 µM (inactive); in [10], 2.21 µM (inactive); in [11], 1.94 µM (inactive); in test [12] it was 1.8 µM (inactive). The GI50 was 2.65 µM (inactive) in [13]; 2.34 µM (inactive) in test [14]; 1.72 µM (inactive) in test [15]; 2.32 µM (inactive) in [16]; 5.64 µM (inactive) in test [17]; 6.59 µM (inactive) in test [18]. For the same molecule, the results for the GI50 in test [19] and in [20] were 2.19 µM (inactive) and 3.13 µM (inactive), respectively.
